According to patent publication US12678488B2, “Batch management method for improving farrowing rate or number of piglets born alive in swine” (priority 2024, dated 2026):
Marks after values point to notes of the source that are not given here.

Legend:
[1] = tested on: Enpp2, Lpar3 and ptgs2 mRNA (LPA signalling pathway) in the uterus; experiment: Quantitative PCR of key molecules in the LPA signalling pathway in mouse uteri; type: in vivo; conditions: mice, 10 μg/kg·BW
Description: 6-8-week-old ICR female mice acclimatized to the laboratory mouse house environment and in a good condition were selected and divided into a batch farrowing with FTAI model group, a batch farrowing with FTAI+low-dose model group, and a batch farrowing with FTAI+high-dose model group, and 10IU PMSG was injected at 17:00 pm. […] At 7:00-9:00 the next morning, vaginal plugs were examined, and this day was recorded as day 1 (D1) of pregnancy. In the afternoon of day 5 (D5) of pregnancy, 0.4 ml of 1% Chicago blue-normal saline solution was injected into model mice at the caudal vein, and after 3 minutes of systemic circulation, the mice were sacrificed by means of cervical dislocation, the abdominal cavity was immediately cut open, and the abdominal aorta was cut for bleeding. […] Blue dots on the uterus were recorded as embryo implantation sites, the number of implantation sites was counted, and patterns of embryo spacing in different groups were drawn.
Unfixed uteri were isolated for RNA extraction, reverse transcription and quantitative PCR detection of several key target molecules in the LPA signalling pathway, i.e., detection of Enpp2 (a gene for the expression of ATX, the key enzyme of LPA synthesis), Lpar3 (LPA receptor gene), and ptgs2 (a key gene downstream of LPAR). […]

[2] = tested on: Landrace x Large White binary sows; experiment: Pregnancy, farrowing rate, litter size and piglet index of gilts in batch farrowing with FTAI (Example 3); type: in vivo, pigs
Description: The term “farrowing rate”, as used herein, was calculated as the percentage of the number of farrowed sows divided by the number of mated gilts and sows.
For example, in the case of a certain batch of sows, the farrowing rate=the number of farrowing sows/the number of mated gilts and sows×100%.
The term “Piglet Index (PI)”, as used herein, refers to the total number of live piglets born per 100 gilts or sows that have been naturally mated or artificially inseminated. The calculation method is the average number of born alive per litter multiplied by the farrowing rate and then multiplied by the total gilts or sows (100).
The breed of the gilts used in this example was Landrace x Large White binary sows, the reserve sows were randomly divided into the following 4 groups, and the treatment method for each group was as follows:
batch farrowing with FTAI: the sows were fed with an altrenogest oral solution at 20 mg/gilt at the same time every day, for 18 days; PMSG at 1000 IU/gilt was injected intramuscularly 42 h after the last feeding with altrenogest, GnRH at 100 μg/gilt was further injected intramuscularly 80 h after the intramuscular injection of PMSG, a first timed insemination was performed 24 h after the injection of GnRH, and a second timed insemination was performed after 24 h.
Treatment group 1 (batch farrowing with FTAI, with supplementing with 1-[bis(4-cyanophenyl)methyl]-1,2,4-triazole (12 μg/kg·BW, orally once)): The hormone treatment and mating schemes for gilts were the same as those for gilts in the batch farrowing with FTAI. The gilts were administered orally once with 1-[bis(4-cyanophenyl)methyl]-1,2,4-triazole at 12 μg/kg·BW 8 h after the injection of PMSG.
Treatment group 2 (batch farrowing with FTAI, with supplementing with 1-[bis (4-cyanophenyl)methyl]-1,2,4-triazole (12 μg/kg·BW, orally twice)): The hormone treatment and mating schemes for gilts were the same as those for gilts in the batch farrowing with FTAI. The gilts were administered orally once with 1-[bis(4-cyanophenyl)methyl]-1,2,4-triazole at 12 μg/kg·BW 8 h after the injection of PMSG, and then orally once with 1-[bis(4-cyanophenyl)methyl]-1,2,4-triazole at 12 μg/kg·BW after another 24 h.
Treatment group 3 (batch farrowing with FTAI, supplemented with 1-[bis(4-cyanophenyl)methyl]-1,2,4-triazole (20 μg/kg·BW, orally in a single dose)): The hormone treatment and mating schemes for gilts were the same as those for gilts in the batch farrowing with FTAI. The gilts were administered orally once with 1-[bis(4-cyanophenyl)methyl]-1,2,4-triazole at 20 μg/kg·BW 8 h after the injection of PMSG.
The farrowing rate and piglet index of sows in the different treatment groups were calculated as follows:
wherein Piglet Index (PI), a comprehensive index to measure the overall reproductive performance of a sow population at present in production, refers to the number born alive from every 100 gilts or sows, who have undergone natural mating or artificial insemination.

[3] = tested on: batch farrowing sows; experiment: Previous experiment of feeding batch farrowing sows with different doses at different times; type: in vivo, pigs; conditions: application dosage and oral administration time of clinical medicine and bovine superovulation
Description: In the disclosure, the administration dosage of 1-[bis(4-cyanophenyl)alkyl]-1,2,4-triazole is generally 10-50 μg/kg·BW administered in a single dose, preferably 12-30 μg/kg·BW administered in a single dose, further preferably 12-25 μg/kg·BW administered in a single dose, e.g., 13, 14, 15, 16, 17, 18, 19, 20, 21, 22, or 23 μg/kg·BW. Alternatively, it can be administered in two doses. As long as the total administration dosage of the two doses is within a range of 10-50 μg/kg·BW, the dosage of each administration is not particularly limited, for example, each administration dosage is generally within a range of 1-40 μg/kg·BW. In the case of two doses, the time interval between the two instances of administration is 8-30 hours, preferably 9-28 hours, more preferably 10-26 hours, further preferably 12-25 hours, 14-24 hours, etc. If the administration dosage is too high, it tends to affect the estrus and ovulation in animals and even cause ovarian cysts. The administration dosage of the disclosure is important.

[4] = Example 3, low-dose (treatment groups 1, 2, and 3), compared with batch farrowing with FTAI
[5] = Example 3, treatment group 1 (12 μg/kg·BW orally once), compared with batch farrowing with FTAI
[6] = Example 3, treatment groups 2 and 3
[7] = Example 3 Treatment group 1: 12 μg/kg·BW orally once, gilts
[8] = Example 3 Treatment group 2: 12 μg/kg·BW orally twice, 24 h apart, gilts
[9] = Example 3 Treatment group 3: 20 μg/kg·BW orally in a single dose, gilts

## N#Cc1ccc(C(c2ccc(C#N)cc2)n2cncn2)cc1 [1-[bis(4-cyanophenyl)methyl]-1,2,4-triazole]
[1]; compared with batch farrowing with FTAI model group
  Enpp2, Lpar3 and ptgs2 mRNA levels in the uteri: significantly higher
[1]; compared with natural estrus group
  Enpp2, Lpar3 and ptgs2 mRNA levels in the uteri: no significant difference
[2]; Example 3, 20 μg/kg·BW group compared with 12 μg/kg·BW group
  estrus rate: slightly lower
[2]; [4]
  Piglet index: significantly increased
  farrowing rate: significantly increased
  pregnancy rate: significantly increased
[2]; [5]
  Healthy litter size: significantly higher
  number born alive: significantly higher
[2]; [6]
  Healthy litter size: increasing trend
  number born alive: increasing trend
[2]; Example 3, treatment groups with different doses, compared with batch farrowing with FTAI
  estrus rate: no significant difference
[2]; [7]
  Delivery rate (%): 88.00^b %
  Estrus rate (%): 92.00%
  Healthy litter size: 12.12 ± 0.32^b
  Live litter size: 12.44 ± 0.30^b
  Piglet index: 1094
  Pregnancy rate (%): 92.00^b %
  Stillborn + mummy: 1.80 ± 0.22
  Total number born litter size: 13.96 ± 0.30
  Weak litter: 0.24 ± 0.10
[2]; [8]
  Delivery rate (%): 83.33^b %
  Estrus rate (%): 93.75%
  Healthy litter size: 11.72 ± 0.43^a
  Live litter size: 12.00 ± 0.45^a
  Piglet index: 1000
  Pregnancy rate (%): 95.83^b %
  Stillborn + mummy: 1.56 ± 0.16
  Total number born litter size: 13.76 ± 0.62
  Weak litter: 0.28 ± 0.09
[2]; [9]
  Delivery rate (%): 81.48^b %
  Estrus rate (%): 88.89%
  Healthy litter size: 11.76 ± 0.37^a
  Live litter size: 12.04 ± 0.42^a
  Piglet index: 981
  Pregnancy rate (%): 85.19^b %
  Stillborn + mummy: 1.88 ± 0.39
  Total number born litter size: 14.04 ± 0.53
  Weak litter: 0.40 ± 0.10
[2]; per 100 gilts, method of the disclosure versus batch farrowing with FTAI
  live piglets (weaned piglets) increased by every 100 gilts: 190 live piglets
[3]
  problems caused in sows: recessive estrus, ovarian cyst, anovulation, and pregnancy failure
